These results are taken from patent US6794560B2, “Nucleic acid encoding GAI gene of Arabidopsis thaliana” (Pioneer Hi-Bred International, Inc., priority 1996, dated 2004).

Structures are written as SMILES.

The subject of assay [1] is stimulation of cell elongation, leaf senescence or elicitation of the cereal aleurone α-amylase response. The settings on record: structure-activity statement; cited from earlier work.
A further assay relates to gai mutants. The settings on record: cited from earlier work.
Another assay relates to gai-t6 mutant. The experiment in a line: growth on medium containing paclobutrazol. It is filed as in vivo, Arabidopsis thaliana. The settings on record: grown on medium containing paclobutrazol. The source says: The slender mutants of pea and barley are resistant to the dwarfing effects of paclobutrazol^38-42, as is the Arabidopsis constitutive GA-response mutant spy^43,44. Thus, in these mutants stem elongation is at least partially uncoupled from the GA-mediated control characteristic of normal plants. […] Put another way, a GAI null mutant appears to require less endogenous GA to achieve a certain degree of growth than does a normal plant. GA-dependency is not completely abolished by gai-t6 possibly because the products of genes related in sequence to GAI (see above) can substantially, but not completely, compensate for loss of GAI function.

The target of the next assay is T1, kaurene oxidase reaction (Arabidopsis thaliana, UniProt Q93ZB2).
T1 sequence (Q93ZB2 1-509): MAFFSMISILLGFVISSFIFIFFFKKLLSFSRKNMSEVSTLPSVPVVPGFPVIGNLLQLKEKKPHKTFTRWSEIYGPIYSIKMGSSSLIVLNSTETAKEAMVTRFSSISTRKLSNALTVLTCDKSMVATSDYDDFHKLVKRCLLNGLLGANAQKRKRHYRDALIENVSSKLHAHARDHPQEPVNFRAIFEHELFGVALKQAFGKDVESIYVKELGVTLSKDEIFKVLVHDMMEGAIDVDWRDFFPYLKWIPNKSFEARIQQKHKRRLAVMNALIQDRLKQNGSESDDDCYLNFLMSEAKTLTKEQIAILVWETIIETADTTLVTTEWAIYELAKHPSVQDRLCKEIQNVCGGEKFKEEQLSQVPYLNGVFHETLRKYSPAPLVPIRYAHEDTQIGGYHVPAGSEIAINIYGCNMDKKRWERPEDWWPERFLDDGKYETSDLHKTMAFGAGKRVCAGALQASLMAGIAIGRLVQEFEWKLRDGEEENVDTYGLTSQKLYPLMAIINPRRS
Particulars: cited from earlier work.

The test system of a further assay is plants. The settings on record: reduces endogenous GA levels; cited from earlier work.

For `C=C1C[C@]23C[C@H]1CC[C@H]2[C@@]12C=C[C@H](O)[C@@](C)(C(=O)O1)[C@H]2[C@@H]3C(=O)O` [GA7], the “biological activity of gibberellin” value in assay [1] is “high biological activity”.

In the case of `C=C1C[C@]23C[C@@]1(O)CC[C@H]2[C@@]12C[C@H](O)[C@H](O)[C@@](C)(C(=O)O1)[C@H]2[C@@H]3C(=O)O` [GA8], the “biological activity of gibberellin” value in assay [1] is recorded as “inactivity”. Regarding `C=C1C[C@]23C[C@H]1CC[C@H]2[C@@]12C[C@H](O)[C@H](O)[C@@](C)(C(=O)O1)[C@H]2[C@@H]3C(=O)O` [GA34], in assay [1], the “biological activity of gibberellin” value is reported as “inactivity”. Consider `C=C1C[C@]23C[C@@]1(O)CC[C@H]2[C@@]12C=C[C@H](O)[C@@](C)(C(=O)O1)[C@H]2[C@@H]3C(=O)O` [GA3], for which, in the assay on gai mutants, the “response of gai mutants to GA treatment” value is “do not respond”. Turning to `C=C1C[C@]23C[C@H]1CC[C@H]2[C@@]12C[C@H](O)C[C@@](C)(C(=O)O1)[C@H]2[C@@H]3C(=O)O` [GA51], the “biological activity of gibberellin” value in assay [1] is “inactivity”. In the case of `C=C1C[C@]23C[C@H]1CC[C@H]2[C@@]12CC[C@H](O)[C@@](C)(C(=O)O1)[C@H]2[C@@H]3C(=O)O` [GA4], the “biological activity of gibberellin” value in assay [1] is listed as “high biological activity”. Moreover, in the assay on gai mutants, the “response of gai mutants to GA treatment” value was “do not respond”. For `CC(C)(C)[C@@H](O)[C@@H](Cc1ccc(Cl)cc1)n1cncn1` (racemic) [Paclobutrazol], in the assay with gai-t6 mutant, the “floral bolt stem length of gai-t6 mutants vs GAI control plants” value is “longer floral bolt stems than GAI control plants”. The “inhibition of GA biosynthesis” value on kaurene oxidase reaction is “specifically inhibits GA biosynthesis”. For the same molecule, the “phenotype of plants exposed” value in the assay on plants was “conferring a dwarf phenotype”. `C=C1C[C@]23C[C@@]1(O)CC[C@H]2[C@@]12CC[C@H](O)[C@@](C)(C(=O)O1)[C@H]2[C@@H]3C(=O)O` [GA1]: the “biological activity of gibberellin” value in assay [1] is “high biological activity”. The “response of gai mutants to GA treatment” value in the assay with gai mutants was “do not respond”.

Turning to `C=C1C[C@]23C[C@@]1(O)CC[C@H]2[C@@]12C[C@H](O)C[C@@](C)(C(=O)O1)[C@H]2[C@@H]3C(=O)O` [GA29], the “biological activity of gibberellin” value in assay [1] is given as “inactivity”.
